The compounds below were run against VR1 (Homo sapiens, UniProt Q8NER1) (assay: Calcium uptake assay, low pH (proton) stimulus). Conditions: 0.3 μM compound; low pH agonist; HEK 293 cells expressing hVR1.
Assay type: cell-based
Parameters: expressed in transfected cells; host or cells: T-REx HEK 293 (Invitrogen), pcDNA5/TO vector

Chain of VR1 (Q8NER1 whole entry): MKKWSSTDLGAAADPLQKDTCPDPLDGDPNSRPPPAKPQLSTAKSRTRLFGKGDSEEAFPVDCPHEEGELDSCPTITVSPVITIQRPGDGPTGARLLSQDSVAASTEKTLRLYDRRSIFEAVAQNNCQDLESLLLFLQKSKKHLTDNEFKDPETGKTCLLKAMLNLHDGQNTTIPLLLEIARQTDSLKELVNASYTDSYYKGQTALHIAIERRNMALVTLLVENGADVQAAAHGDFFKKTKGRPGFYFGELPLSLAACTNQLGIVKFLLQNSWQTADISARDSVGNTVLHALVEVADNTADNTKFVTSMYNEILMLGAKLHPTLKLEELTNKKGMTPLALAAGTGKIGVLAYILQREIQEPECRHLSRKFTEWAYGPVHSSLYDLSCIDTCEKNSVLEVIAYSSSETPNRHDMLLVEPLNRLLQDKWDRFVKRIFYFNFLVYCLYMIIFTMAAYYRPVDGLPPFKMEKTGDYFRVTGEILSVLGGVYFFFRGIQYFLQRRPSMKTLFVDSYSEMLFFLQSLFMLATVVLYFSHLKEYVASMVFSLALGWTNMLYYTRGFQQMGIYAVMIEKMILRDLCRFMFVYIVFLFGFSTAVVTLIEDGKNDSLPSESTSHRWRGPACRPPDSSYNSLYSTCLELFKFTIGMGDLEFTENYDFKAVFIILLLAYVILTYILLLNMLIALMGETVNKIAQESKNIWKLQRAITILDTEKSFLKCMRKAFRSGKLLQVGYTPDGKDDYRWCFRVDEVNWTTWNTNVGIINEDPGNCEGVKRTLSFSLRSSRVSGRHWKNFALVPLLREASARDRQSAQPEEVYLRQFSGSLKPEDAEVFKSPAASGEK

Row | Structure (SMILES) | Low pH % Inhib. @ 0.3 μM
1 | CS(=O)(=O)OCC1COc2cc(NC(=O)c3ccc(C#CC4CCCC4)cc3)ccc2O1 (stereo not drawn) [Compound 116] | 10%
2 | O=C(Nc1ccc2c(c1)OCC(CO)O2)c1ccc(/C=C/C(F)(F)F)cc1 (single isomer, unassigned) [Compound 108] | 116%

Same assay, conditions: HEK293; 0.3 μM compound; low pH agonist; HEK 293 cells expressing hVR1; read-out: Low pH % Inhib. @ 0.3 μM

Row | Structure (SMILES) | inhibition at 0.3 µM
3 | Cc1cc(/C=C/C(F)(F)F)ccc1C(=O)Nc1ccc2c(c1)OCC(O)CN2 (stereo not drawn) [Compound 189] | 87%
4 | Cc1cc(/C=C/C(F)(F)F)ccc1C(=O)Nc1cnc2c(c1)CNCC2 [Compound 229] | 54%
5 | O=C(Nc1ccc2c(c1)OCCN2)c1ccc(C#CC2CC2)cc1Cl [Compound 147] | 88%
6 | COc1cc(/C=C\C(F)(F)F)ccc1C(=O)Nc1ccc2c(c1)OCCN2 [Compound 120] | 19%
7 | O=C(Nc1ccc2c(c1)OCCN2)c1c(F)cc(C#CC2CC2)cc1F [Compound 130] | 104%
8 | CN1CCOc2ccc(NC(=O)c3ccc(/C=C/C(F)(F)F)cc3)cc21 [Compound 88] | 48%
9 | O=C(Nc1ccc2c(c1)S(=O)(=O)C=C2)c1ccc(/C=C/C(F)(F)F)cc1 [Compound 92] | 71%
10 | O=C(Nc1ccc2sc(CO)nc2c1)c1ccc(/C=C/C(F)(F)F)cc1 [Compound 55] | 101%
11 | CC(C)/C=C/c1ccc(C(=O)Nc2ccc3c(c2)OCCO3)cc1 [Compound 8] | 26%
12 | O=C(Nc1ccc2c(c1)NCCO2)c1ccc(C#CC2CCCC2)cc1 [Compound 106] | 5%
13 | Cc1cc(/C=C/C(F)(F)F)ccc1C(=O)Nc1ccc2c(c1)OCCO2 [Compound 190] | 87%
14 | CN1C(=O)C(C)(C)Oc2ccc(NC(=O)c3ccc(/C=C/C(F)(F)F)cc3)cc21 [Compound 78] | 32%
15 | O=C(Nc1cc2c(cc1Cl)NCCO2)c1ccc(/C=C/C(F)(F)F)cc1 [Compound 136] | 50%
16 | CC(C)/C=C/c1ccc(C(=O)Nc2ccc3[nH]ccc3c2)cc1 [Compound 9] | 37%
17 | O=C(Nc1ccc2c(c1)OCCO2)c1ccc(C#CC2CC2)cc1 [Compound 49] | 96%
18 | CN1CCCc2ccc(NC(=O)c3ccc(C#CC4CC4)cc3)cc21 [Compound 80] | 92%
19 | O=C(Nc1ccc2c(c1)OCCO2)c1ccc(/C=C/C(F)(F)F)cc1F [Compound 142] | 70%
20 | C/C(=C\C(F)(F)F)c1ccc(C(=O)Nc2ccc3c(c2)OCCO3)cc1 [Compound 99] | 94%

Row | Structure (SMILES) | inhibition at 0.3 µM
21 | O=C(Nc1ccc2c(c1)OCCN2)c1ccc(C#CC2CC2)cc1F [Compound 143] | 100%
22 | O=C(Nc1ccc2c(c1)OCCN2)c1ccc(C#CC(F)(F)F)cc1 [Compound 70] | 185%
23 | O=C(Nc1ccc2c(c1)OCCN2)c1ccc(/C=C/C(F)(F)F)cc1Cl [Compound 148] | 104%
24 | CC(C)(C)/C=C/c1ccc(C(=O)Nc2ccc3c(c2)OCCO3)cc1 [Compound 1] | 83%
25 | Cc1nc2cc(NC(=O)c3ccc(/C=C/C(F)(F)F)cc3F)ccc2s1 [Compound 177] | 85%
26 | Cc1cc(/C=C/C(F)(F)F)ccc1C(=O)Nc1cccc2cnccc12 [Compound 77] | 90%
27 | O=C(Nc1ccc2nccnc2c1)c1ccc(/C=C/C(F)(F)F)cc1 [Compound 115] | 90%
28 | C/C(=C\c1ccc(C(=O)Nc2ccc3c(c2)OCCO3)cc1)C(F)(F)F [Compound 102] | 91%
29 | O=C(Nc1ccc2c(c1)OC(CO)CO2)c1ccc(C#CC2CC2)cc1 (stereo not drawn) [Compound 86] | 83%
30 | Cn1ccc2cc(NC(=O)c3ccc(/C=C/C(F)(F)F)cc3)ccc21 [Compound 37] | 17%
31 | COc1cc(/C=C\C(F)(F)F)ccc1C(=O)Nc1ccc2c(c1)OCCO2 [Compound 121] | 19%
32 | O=C(Nc1ccc2c(c1)OCCN2)c1ccc(/C=C\C(F)(F)F)cc1F [Compound 135] | 29%
33 | Cc1cc(C(=O)Nc2cccc3cnccc23)ccc1C#CC(F)(F)F [Compound 75] | 102%
34 | CC(C)(O)COc1cc(C(=O)Nc2ccc3c(c2)OCCO3)ccc1C#CC1CC1 [Compound 110] | 1%
35 | CC(C)(C)/C=C/c1ccc(C(=O)Nc2cccc3cnccc23)cc1 [Compound 40] | 86%
36 | O=C(Nc1ccc2c(c1)OCC(CO)O2)c1ccc(/C=C/C(F)(F)F)cc1F (stereo not drawn) [Compound 149] | 71%
37 | CC(=CC(F)(F)F)c1ccc(C(=O)Nc2cccc3cnccc23)cc1 [Compound 76] | 88%
38 | O=C(Nc1cccc2cnccc12)c1ccc(C#CC2CCCC2)cc1 [Compound 101] | 94%

Further lines, results first:

Row | inhibition at 0.3 µM | Structure (SMILES)
39 | 140% | CC(=O)N1CC(C)(C)c2ccc(NC(=O)c3ccc(C#CC(C)(C)C)cc3)cc21 [Compound 68]
40 | 98% | CC(C)(C)C#Cc1ccc(C(=O)Nc2ccc3c(c2)OCC(CO)O3)cc1 (stereo not drawn) [Compound 81]
41 | 82% | Cc1cc(/C=C/C(F)(F)F)ccc1C(=O)Nc1ccc2cccnc2c1 [Compound 224]
42 | 12% | C/C(=C/C(C)(C)C)c1ccc(C(=O)Nc2ccc3ncccc3c2)cc1 [Compound 18]
43 | 8% | CC(C)(C)C#Cc1ccc(C(=O)Nc2ccc3c(c2)N(CCN2CCOCC2)CC3(C)C)cc1 [Compound 67]
44 | 107% | Cc1nc2cc(NC(=O)c3ccc(C#CC(C)(C)C)cc3Cl)ccc2s1 [Compound 165]
45 | 67% | Cc1cc(C#CC(C)(C)C)ccc1C(=O)Nc1cccc2c(Cl)cccc12 [Compound 199]
46 | 87% | Cc1cc(C#CC2CCCC2)ccc1C(=O)Nc1ccc2c(c1)OCC(CO)O2 (stereo not drawn) [Compound 141]
47 | 98% | CC(C)(C)C#Cc1ccc(C(=O)Nc2ccc3c(c2)OC[C@@H](CO)N3)c(Cl)c1 [Compound 183]
48 | 97% | Cc1cc(C#CC(C)(C)C)ccc1C(=O)Nc1cnc2[nH]ccc2c1 [Compound 212]
49 | 88% | Cc1cc(C#CC(C)(C)C)ccc1C(=O)Nc1ccc2c(c1)C(=O)NC2=O [Compound 213]
50 | 103% | CC(C)(C)C#Cc1ccc(C(=O)Nc2ccc3c(c2)NCC3(C)C)cc1 [Compound 69]
51 | 6% | Cc1cc(C#CC(C)(C)C)ccc1C(=O)Nc1cnc2[nH]c(CO)nc2c1 [Compound 218]
52 | 83% | CC(C)(C)C#Cc1cc(Cl)c(C(=O)Nc2ccc3c(c2)OCC(CO)O3)cc1F (stereo not drawn) [Compound 191]
53 | 103% | CC(C)(C)C#Cc1ccc(C(=O)Nc2ccc3c(c2)OCCN3)c(F)c1 [Compound 137]
54 | 105% | CC(C)(C)C#Cc1ccc(C(=O)Nc2ccc3c(c2)OCCO3)cc1 [Compound 30]
55 | 73% | Cc1cc(C#CC2CC2)ccc1C(=O)Nc1ccc2c(c1)OCCO2 [Compound 152]
56 | 95% | CC(C)(C)C#Cc1ccc(C(=O)Nc2ccc3c(c2)OCC(CO)O3)c(F)c1 (stereo not drawn) [Compound 154]
57 | 99% | Cc1nc2cc(NC(=O)c3c(F)cc(C#CC(C)(C)C)cc3F)ccc2s1 [Compound 180]
58 | 34% | CN1CCCc2ccc(NC(=O)c3ccc(C#CC(C)(C)C)nc3)cc21 [Compound 85]
59 | 21% | CC(C)(C)C#Cc1ccc(C(=O)Nc2cccc3cnccc23)nc1 [Compound 91]
60 | 21% | C/C(=C/C(C)(C)C)c1ccc(C(=O)Nc2ccc3[nH]ccc3c2)cc1 [Compound 16]

Row | inhibition at 0.3 µM | Structure (SMILES)
61 | 82% | Cc1cc(/C=C/C(F)(F)F)ccc1C(=O)Nc1ccc2ncccc2c1 [Compound 222]
62 | 95% | Cc1cc(C#CC2CCCC2)ccc1C(=O)Nc1ccc2c(c1)OCCN2 [Compound 139]
63 | 112% | O=C(Nc1ccc2c(c1)OC[C@@H](CO)N2)c1ccc(C#CC2CC2)cc1F [Compound 169]
64 | 86% | Cc1cc2c(NC(=O)c3ccc(/C=C/C(F)(F)F)cc3C)cccc2cn1 [Compound 196]
65 | 12% | COc1cc(C#CC(C)(C)C)ccc1C(=O)Nc1ccc2c(c1)OCCN2 [Compound 128]
66 | 76% | CC(C)(C)C#Cc1ccc(C(=O)Nc2ccc3c(c2)OC(CO)CO3)cc1 (stereo not drawn) [Compound 82]
67 | 97% | CC(C)(C)C#Cc1ccc(C(=O)Nc2cnc3ccccc3c2)c(F)c1 [Compound 174]
68 | 109% | Cc1nc2cc(NC(=O)c3ccc(C#CC(C)(C)C)cc3F)ccc2s1 [Compound 173]
69 | 98% | Cn1ccc2cc(NC(=O)c3ccc(/C=C/C(C)(C)C)cc3)ccc21 [Compound 42]
70 | 9% | O=C(Nc1cnc2ccccc2c1)c1ccc(/C=C/C(F)(F)F)cc1F [Compound 178]
71 | 101% | CC(C)(C)/C=C/c1ccc(C(=O)Nc2cnc3ccccc3c2)cc1 [Compound 41]
72 | 112% | O=C(Nc1ccc2c(c1)OC[C@H](CO)N2)c1ccc(C#CC2CC2)cc1F [Compound 171]
73 | 31% | Cc1cc(C#CC(C)(C)C)ccc1C(=O)Nc1cnc2cc(CO)ccc2c1 [Compound 216]
74 | 10% | CC(C)(C)C#Cc1ccc(C(=O)Nc2cccc3cnccc23)c(Cl)n1 [Compound 66]
75 | 5% | CC(C)(C)C#Cc1ccc(C(=O)Nc2ccc3c(c2)OC(F)(F)O3)cc1 [Compound 50]
76 | 95% | CC(C)(C)C#Cc1ccc(C(=O)Nc2cccc3cnccc23)c(Cl)c1 [Compound 161]
77 | 91% | Cc1cc(C#CC(C)(C)C)ccc1C(=O)Nc1ccc2c(c1)OCC(CO)O2 (stereo not drawn) [Compound 186]
78 | 87% | Cn1ccc2ccc(NC(=O)c3ccc(C#CC(C)(C)C)nc3)cc21 [Compound 44]
79 | 101% | CC(C)(C)C#Cc1ccc(C(=O)Nc2cnc3ccccc3c2)cc1 [Compound 24]
80 | 33% | Cc1cc(C#CC2CCCC2)ccc1C(=O)Nc1ccc2c(c1)OCCO2 [Compound 140]
81 | 103% | CC(C)(C)C#Cc1ccc(C(=O)Nc2ccc3c(c2)OC[C@H](CO)N3)c(Cl)c1 [Compound 182]

— US20080300243A1, “Amide Derivatives as Ion-Channel Ligands and Pharmaceutical Compositions and Methods of Using the Same” (priority 2005, published 2008)
